For data set [1], the system named is HT29. The data set is described as follows: MTT reduction proliferation test, 72 h incubation. It counts as cell-based. The note with it: HT 29 cells. As to the method: (§1) Des cellules tumorales L1210, A549 et HT29, à une concentration de 5.10³/ml dans un milieu RPMI, sont incubées dans des plaques de microtitration contenant 96 puits, pendant 72 heures (37°C, 5 % CO₂, 95 % d'humidité relative) avec différentes concentrations de chacun des glycosides (anthracyclines) conformes à l'invention.
(§2) Les témoins consistent en cellules tumorales exposées à un milieu de culture. Quatre puits sont préparés pour chaque concentration en glycoside et pour le témoin. Après 65 heures, 50 µl de MTT (2,5 mg/ml dans du PBS) sont ajoutés.
(§3) Le MTT sera réduit, en présence de cellules vivantes en un colorant formazan rouge insoluble. Après 7 à 24 heures d'incubation supplémentaire, le surnageant est enlevé. Le colorant formazan est solubilisé par l'addition de 100 µl de DMSO dans chaque puits, suivie d'une agitation douce.
(§4) L'extinction est mesurée pour chaque puits, à 492 nm (photomètre Multiscan 340 CC Fa. Flow).
(§5) Les résultats sont exprimés comme le rapport de l'extinction après incubation avec les glycosides sur l'extinction obtenue avec les témoins. Le coefficient de variation est inférieur à 15 %.
(Tetrazolium assays rely on reduction of a dye to a coloured formazan, in cell work by metabolically active cells.)

The subject of data set [2] is A549. As to the kind of experiment: MTT reduction proliferation test, 72 h incubation. Conditions: A 549 cells. The data set is classed as cell-based. As to the method:
as §1, §2, §3, §4, §5

Data set [3] concerns L1210. As to the kind of experiment: MTT reduction proliferation test, 72 h incubation. It counts as cell-based. Conditions: L1210 cells. As for the experimental part:
as §1, §2, §3, §4, §5

Data set [4] deals with L1210. As to the kind of experiment: In vivo antitumour effect on L1210 ascites leukemia in mice. Details: species or system souris BDF1. Conditions: for L1210 T/C %: 3 x 1.p./ 1.p. Q3D, BDF1 mice. As to the method: Un liquide d'ascite est prélevé dans les conditions aseptiques chez des souris DBA2 (femelle, 18 - 20 g) le septième jours après l'implantation.
L'ascite est lavée trois fois avec du PBS, comptée et finalement diluée dans du PBS, de manière à obtenir 10⁶ cellules/0,2 ml.
10⁶ cellules dans 0,2 ml de P BS sont injectées dans le peritoine de souris DBA2 pour la propagation de la lignée cellulaire.
10⁶ cellules dans 0,2 ml de PBS sont injectés intrapériotonéalement à des souris BDF1 (femelle 18 - 20 g), 6 animaux/group sont utilisés pour chaque concentration de substance et pour le contrôle.
• a) les animaux sont pesés le premier jour et le cinquième jour après l'administration du médicament. Une perte de poids supérieure à 20 % le cinquième jour est utilisée comme indicateur d'effet toxique du produit. • b) à la fin de l'expérience, (mort de tous les animaux ou soixantième jour de l'essai), le temps moyen de survie des animaux, dans tous les groupes ayant plus de 65 % de survivants au cinquième jour, est évalué selon des procédures standard.
Les animaux survivants au soixantième jour sont considérés comme des survivants de longue durée (LTS : Long Time Survivors) et sont répertoriés séparément.
A partir du temps de survie moyen des groupes traités (MSTT) et des groupes contrôle (MSTC), l'effet antitumoral (T/C) est évalué en fonction de la formule suivante : [formula]
Les valeurs T/C de plus de 125 % sont considé-rées comme des indicateurs d'un effet antitumoral significatif.

Data set [5] is described as follows: Acute toxicity in mice (Litchfield Wilcoxon). The data set is classed as in vivo, souris NMRI. Conditions: 3 x i.p., NMRI mice, deaths counted after two weeks. An excerpt:
La substance à tester est injectée à des souris NMRI selon le protocole tel que précisé dans le Tableau IV, ci-après.
Après deux semaines, le nombre total d'animaux décédés dans chaque groupe est calculé et les DL₅₀ sont évaluées en utilisant la méthode de Litchfield Wilcoxon.

As for `CCCCC1OC(OC2CC(O)(C(C)=O)Cc3c(O)c4c(c(O)c32)C(=O)c2c(OC)cccc2C4=O)CC(OC(C)=O)C1OC(C)=O` (centres unmarked) [20 c, acétoxy-3′ O-acétyl-4′ désamino-3′ propyl-6′ daunorubicine], the “CI₅₀ TEST AU MTT HT 29” value in data set [1] is over 1 µg/mL. Further, the “CI₅₀ TEST AU MTT A 549” value in data set [2] is over 1 µg/mL. In addition, in data set [3], the “CI₅₀ TEST AU MTT L1210” value is over 1 µg/mL.

Regarding `CCC1(O)CC(OC2CC(OC(C)=O)C(OC(C)=O)C(C)O2)c2c(O)c3c(c(O)c2C1O)C(=O)c1cccc(O)c1C3=O` [21 a, O-(di-O-acétyl-3′,4′ didésoxy-2′,6′-α-L-thréo-hexopyrannosyl)-7 β-Rhodomycinone], the “L1210 T/C %” value in data set [4] (10.00 mg/kg/Inj.) stood at 134%; in data set [4] (13.30 mg/kg/Inj.) it was 152%; in data set [4] (17.70 mg/kg/Inj.), 146%. Besides, in data set [4] (17.70 mg/kg/Inj., 6 animals/group), the Morts toxiques is 1/6. In data set [1], the “CI₅₀ TEST AU MTT HT 29” value is on record as 0,038 µg/ml. In data set [2], the “CI₅₀ TEST AU MTT A 549” value is 0,086 µg/ml. Further, the “CI₅₀ TEST AU MTT L1210” value in data set [3] is listed as 0,03 µg/ml. The compound further displayed a DL₅₀ in data set [5] of over 21.3.

As for `CC[C@@H]1O[C@@H](O[C@H]2C[C@](O)(CC)[C@H](O)c3c(O)c4c(c(O)c32)C(=O)c2c(O)cccc2C4=O)C[C@H](OC(C)=O)[C@@H]1OC(C)=O` [21 b, O-(di-O-acétyl-3′-4′ tridésoxy-2′,6′,7′-α-L-thréo-heptopyrannosyl)-7 β-Rhodomycinone], in data set [1], the “CI₅₀ TEST AU MTT HT 29” value is over 1 µg/mL. The “CI₅₀ TEST AU MTT A 549” value in data set [2] was 0,46 µg/ml. The “CI₅₀ TEST AU MTT L1210” value in data set [3] is given as 0,51 µg/ml.

Take `CCCCCC1OC(OC2CC(O)(CC)C(OC3CC(OC(C)=O)C(OC(C)=O)C(CCCCC)O3)c3c(O)c4c(c(O)c32)C(=O)c2c(O)cccc2C4=O)CC(OC(C)=O)C1OC(C)=O` [22 c, di-O-(di-O-acétyl-3′,4′ hexadésoxy-2′,6′,7′,8′,9′, 10′-α-L-thréodécapyrannosyl)-7,10 β-Rhodomycinone]: the “CI₅₀ TEST AU MTT HT 29” value in data set [1] is over 1 µg/mL. For the same compound, the “CI₅₀ TEST AU MTT A 549” value in data set [2] was over 1 µg/mL. In addition, in data set [3], the “CI₅₀ TEST AU MTT L1210” value is over 1 µg/mL.

Take `CC[C@@H]1O[C@@H](O[C@H]2C[C@](O)(CC)[C@H](O[C@@H]3C[C@H](OC(C)=O)[C@H](OC(C)=O)[C@H](CC)O3)c3c(O)c4c(c(O)c32)C(=O)c2c(O)cccc2C4=O)C[C@H](OC(C)=O)[C@@H]1OC(C)=O` [22 b, Di-O-(di-O-acétyl-3′,4′tridésoxy-2′,6′,7′-α-L-thréoheptopyrannosyl)-7,10 β-Rhodomycinone]: the “CI₅₀ TEST AU MTT HT 29” value in data set [1] was over 1 µg/mL. In addition, in data set [2], the “CI₅₀ TEST AU MTT A 549” value is over 1 µg/mL. Further, in data set [3], the “CI₅₀ TEST AU MTT L1210” value was over 1 µg/mL.

In the case of `CCCCC[C@@H]1O[C@@H](O[C@H]2C[C@](O)(CC)[C@H](O)c3c(O)c4c(c(O)c32)C(=O)c2c(O)cccc2C4=O)C[C@H](OC(C)=O)[C@@H]1OC(C)=O` [21 c, O-(di-O-acétyl-3′,4′hexadésoxy-2′,6′,7′,8′,9′,10′-α-L-thréodécapyrannosyl)-7 β-Rhodomycinone], the “CI₅₀ TEST AU MTT HT 29” value in data set [1] was over 1 µg/mL. Also, the “CI₅₀ TEST AU MTT A 549” value in data set [2] was over 1 µg/mL. In addition, the “CI₅₀ TEST AU MTT L1210” value in data set [3] was over 1 µg/mL.
